Active and inactive are the calls of the source. No cut-off for these calls is given here.
Assays:
[1] = tested on: Klebsiella pneumoniae; experiment: Synergistic antibacterial activity against Klebsiella pneumoniae ATCC 700603 assessed as FIC after 24 hrs in presence of colistin by checkerboard assay relative to colistin; format: functional
[2] = tested on: Mycobacterium tuberculosis; experiment: Antibacterial activity against Mycobacterium tuberculosis H37Rv at 0.78 to 100 uM after 5 days by resazurin dye based fluorescence assay; format: functional, organism-based; conditions: dose microM 0.78-100, time 5.0 day
[3] = tested on: Staphylococcus aureus; experiment: Antibacterial activity against methicillin-resistant pyruvate kinase deficient Staphylococcus aureus USA300 LAC at 0.15 to 25 uM incubated for 24 hrs under low pyruvate containing medium by resazurin dye based fluorescence assay; format: functional, organism-based; conditions: dose microM 0.15-25, time 24.0 hrs
[4] = tested on: Cell membrane; experiment: Induction of cell membrane permeabilization in methicillin sensitive Staphylococcus aureus ATCC 29213 at 5 fold MIC measured after 30 mins by propidium iodide/DAPI staining based fluorescence microscopic analysis; format: subcellular
[5] = Cytotoxicity against human CLS-54 cells assessed as reduction in cell viability at >12.5 uM measured after 48 hrs by resazurin dye based fluorescence assay; conditions: cls-54, 48 h
[6] = tested on: Staphylococcus aureus; experiment: Antibacterial activity against vancomycin-sensitive Staphylococcus aureus T144 infected in Balb/c mouse assessed as reduction in bacterial burden at 5 mg/kg applied topically measured after 12 days by colony counting method; format: functional, organism-based; conditions: time 12.0 day
[7] = tested on: Escherichia coli; experiment: Synergistic antimicrobial activity against Escherichia coli ATCC BAA 2469 assessed as FIC after 24 hrs in presence of colistin by checkerboard assay relative to test compound MIC; format: functional
[8] = Selectivity index, ratio of IC50 for cytotoxicity against human MRC5 cells to MIC90 for antibacterial activity against […] Staphylococcus aureus ATCC 700699; format: toxicity, cell-based; conditions: read-out: Selectivity Index
[9] = tested on: Cell membrane; experiment: Induction of cell membrane permeabilization in GFP-expressing Staphylococcus aureus ATCC 700699 assessed as increase in GFP efflux at 5 fold MIC measured after 6 hrs by fluorescence assay
[10] = tested on: Staphylococcus aureus; experiment: Induction of cell lysis in Staphylococcus aureus ATCC 700699 assessed as decrease in turbidity at 8 fold MIC measured after 2 hrs by photometric method; format: functional, organism-based

With `Clc1ccc2[nH]cc(-c3cccc(-c4c[nH]c5ccc(Cl)cc45)n3)c2c1` the FIC [1] was 0.125, the Activity [2] was “Active” and the Activity [3] was “Active”. For the same compound, the Activity [4] was “Active”, the Activity [5] was “Toxic” and the Activity [6] was “Active”. The FIC [7] was “<=0.0313”, the selectivity ratio [8] was 32 and the Activity [9] was “Active”. For the same compound, the Activity [10] was “inactive”.

From ChEMBL document CHEMBL4699592, “Nature-Inspired (di)Azine-Bridged Bisindole Alkaloids with Potent Antibacterial In Vitro and In Vivo Efficacy against Methicillin-Resistant Staphylococcus aureus” (J Med Chem, 2020)
